From ChEMBL document CHEMBL3734705, “Synthesis and in vitro cytotoxicity of novel C-12 substituted-14-deoxy-andrographolide derivatives as potent anti-cancer agents” (2015)
The source made the active and inactive calls. No cut-off for these calls is given here.

System: not listed separately
Experiment: Cytotoxicity against human UO31 cells assessed as growth level at 10 uM after 48 hrs by SRB assay
Type: functional, UO-31
Conditions: not given

Compound | Activity
C=C1CC[C@@H]2[C@](C)(COC(C)=O)[C@H](OC(C)=O)CC[C@@]2(C)[C@@H]1CC(NC1CCCC1)C1=CCOC1=O (some centres not stated) | 56.08%

System: not listed separately
Experiment: Cytotoxicity against human SF295 cells assessed as growth inhibition at 10 uM after 48 hrs by SRB assay
Type: functional
Conditions: SF-295, 48 h, read-out: GI

Compound | inhibition of growth at 10 µM
C=C1CC[C@@H]2[C@](C)(COC(C)=O)[C@H](OC(C)=O)CC[C@@]2(C)[C@@H]1CC(NC1CCCC1)C1=CCOC1=O (some centres not stated) | 9.61%

System: not listed separately
Experiment: Cytotoxicity against human HOP92 cells assessed as growth level at 10 uM after 48 hrs by SRB assay
Type: functional, HOP-92
Conditions: not given

Compound | Activity
C=C1CC[C@@H]2[C@](C)(COC(C)=O)[C@H](OC(C)=O)CC[C@@]2(C)[C@@H]1CC(NC1CCCC1)C1=CCOC1=O (some centres not stated) | 25.23%

System: NCI-H226
Experiment: Cytotoxicity against human NCI-H226 cells assessed as growth level at 10 uM after 48 hrs by SRB assay
Type: functional
Conditions: not given

Compound | Activity
C=C1CC[C@@H]2[C@](C)(COC(C)=O)[C@H](OC(C)=O)CC[C@@]2(C)[C@@H]1CC(NC1CCCC1)C1=CCOC1=O (some centres not stated) | 84.46%

System: SK-MEL-28
Experiment: Cytotoxicity against human SK-MEL-28 cells assessed as growth level at 10 uM after 48 hrs by SRB assay
Type: functional
Conditions: not given

Compound | Activity
C=C1CC[C@@H]2[C@](C)(COC(C)=O)[C@H](OC(C)=O)CC[C@@]2(C)[C@@H]1CC(NC1CCCC1)C1=CCOC1=O (some centres not stated) | 91.05%

System: not listed separately
Experiment: Cytotoxicity against human UO31 cells assessed as growth inhibition at 10 uM after 48 hrs by SRB assay
Type: functional
Conditions: UO-31, 48 h, read-out: GI

Compound | inhibition of growth at 10 µM
C=C1CC[C@@H]2[C@](C)(COC(C)=O)[C@H](OC(C)=O)CC[C@@]2(C)[C@@H]1CC(NC1CCCC1)C1=CCOC1=O (some centres not stated) | 43.9%

System: not listed separately
Experiment: Cytotoxicity against human UACC62 cells assessed as growth inhibition at 10 uM after 48 hrs by SRB assay
Type: functional
Conditions: UACC-62, 48 h, read-out: GI

Compound | inhibition of growth at 10 µM
C=C1CC[C@@H]2[C@](C)(COC(C)=O)[C@H](OC(C)=O)CC[C@@]2(C)[C@@H]1CC(NC1CCCC1)C1=CCOC1=O (some centres not stated) | 34.4%

System: CCRF-CEM
Experiment: Cytotoxicity against human CCRF-CEM cells assessed as growth inhibition at 10 uM after 48 hrs by SRB assay
Type: functional
Conditions: read-out: GI

Compound | inhibition of growth at 10 µM
C=C1CC[C@@H]2[C@](C)(COC(C)=O)[C@H](OC(C)=O)CC[C@@]2(C)[C@@H]1CC(NC1CCCC1)C1=CCOC1=O (some centres not stated) | 36.5%

System: HT-29
Experiment: Cytotoxicity against human HT-29 cells assessed as growth inhibition at 10 uM after 48 hrs by SRB assay
Type: functional
Conditions: HT-29, 48 h, read-out: GI

Compound | inhibition of growth at 10 µM
C=C1CC[C@@H]2[C@](C)(COC(C)=O)[C@H](OC(C)=O)CC[C@@]2(C)[C@@H]1CC(NC1CCCC1)C1=CCOC1=O (some centres not stated) | 24.5%

System: not listed separately
Experiment: Cytotoxicity against human PC3 cells assessed as growth inhibition at 10 uM after 48 hrs by SRB assay
Type: functional
Conditions: PC-3, 48 h, read-out: GI

Compound | inhibition of growth at 10 µM
C=C1CC[C@@H]2[C@](C)(COC(C)=O)[C@H](OC(C)=O)CC[C@@]2(C)[C@@H]1CC(NC1CCCC1)C1=CCOC1=O (some centres not stated) | 55.3%

System: ACHN
Experiment: Cytotoxicity against human ACHN cells assessed as growth inhibition at 10 uM after 48 hrs by SRB assay
Type: functional
Conditions: read-out: GI

Compound | inhibition of growth at 10 µM
C=C1CC[C@@H]2[C@](C)(COC(C)=O)[C@H](OC(C)=O)CC[C@@]2(C)[C@@H]1CC(NC1CCCC1)C1=CCOC1=O (some centres not stated) | 21.5%

System: not listed separately
Experiment: Cytotoxicity against human UACC62 cells assessed as growth level at 10 uM after 48 hrs by SRB assay
Type: functional, UACC-62
Conditions: not given

Compound | Activity
C=C1CC[C@@H]2[C@](C)(COC(C)=O)[C@H](OC(C)=O)CC[C@@]2(C)[C@@H]1CC(NC1CCCC1)C1=CCOC1=O (some centres not stated) | 65.59%

System: not listed separately
Experiment: Cytotoxicity against human COLO205 cells assessed as growth level at 10 uM after 48 hrs by SRB assay
Type: functional, COLO 205
Conditions: not given

Compound | Activity
C=C1CC[C@@H]2[C@](C)(COC(C)=O)[C@H](OC(C)=O)CC[C@@]2(C)[C@@H]1CC(NC1CCCC1)C1=CCOC1=O (some centres not stated) | 75.23%

System: not listed separately
Experiment: Cytotoxicity against human NCI-ADR-RES cells assessed as growth inhibition at 10 uM after 48 hrs by SRB assay
Type: functional
Conditions: read-out: GI

Compound | inhibition of growth at 10 µM
C=C1CC[C@@H]2[C@](C)(COC(C)=O)[C@H](OC(C)=O)CC[C@@]2(C)[C@@H]1CC(NC1CCCC1)C1=CCOC1=O (some centres not stated) | 31.5%

System: M14
Experiment: Cytotoxicity against human M14 cells assessed as growth inhibition at 10 uM after 48 hrs by SRB assay
Type: functional
Conditions: M14, 48 h, read-out: GI

Compound | inhibition of growth at 10 µM
C=C1CC[C@@H]2[C@](C)(COC(C)=O)[C@H](OC(C)=O)CC[C@@]2(C)[C@@H]1CC(NC1CCCC1)C1=CCOC1=O (some centres not stated) | 20.9%

System: MCF7
Experiment: Cytotoxicity against human MCF7 cells assessed as growth level at 10 uM after 48 hrs by SRB assay
Type: functional
Conditions: not given

Compound | Activity
C=C1CC[C@@H]2[C@](C)(COC(C)=O)[C@H](OC(C)=O)CC[C@@]2(C)[C@@H]1CC(NC1CCCC1)C1=CCOC1=O (some centres not stated) | 72.42%

System: A498
Experiment: Cytotoxicity against human A498 cells assessed as growth inhibition at 10 uM after 48 hrs by SRB assay
Type: functional
Conditions: A498, 48 h, read-out: GI

Compound | inhibition of growth at 10 µM
C=C1CC[C@@H]2[C@](C)(COC(C)=O)[C@H](OC(C)=O)CC[C@@]2(C)[C@@H]1CC(NC1CCCC1)C1=CCOC1=O (some centres not stated) | 32%

System: M14
Experiment: Cytotoxicity against human M14 cells assessed as growth level at 10 uM after 48 hrs by SRB assay
Type: functional
Conditions: not given

Compound | Activity
C=C1CC[C@@H]2[C@](C)(COC(C)=O)[C@H](OC(C)=O)CC[C@@]2(C)[C@@H]1CC(NC1CCCC1)C1=CCOC1=O (some centres not stated) | 79.06%

System: SN12C
Experiment: Cytotoxicity against human SN12C cells assessed as growth inhibition at 10 uM after 48 hrs by SRB assay
Type: functional
Conditions: read-out: GI

Compound | inhibition of growth at 10 µM
C=C1CC[C@@H]2[C@](C)(COC(C)=O)[C@H](OC(C)=O)CC[C@@]2(C)[C@@H]1CC(NC1CCCC1)C1=CCOC1=O (some centres not stated) | 21.5%

System: not listed separately
Experiment: Cytotoxicity against human SF268 cells assessed as growth inhibition at 10 uM after 48 hrs by SRB assay
Type: functional
Conditions: SF-268, 48 h, read-out: GI

Compound | inhibition of growth at 10 µM
C=C1CC[C@@H]2[C@](C)(COC(C)=O)[C@H](OC(C)=O)CC[C@@]2(C)[C@@H]1CC(NC1CCCC1)C1=CCOC1=O (some centres not stated) | 23.3%

System: not listed separately
Experiment: Cytotoxicity against human BT549 cells assessed as growth level at 10 uM after 48 hrs by SRB assay
Type: functional, BT-549
Conditions: not given

Compound | Activity
C=C1CC[C@@H]2[C@](C)(COC(C)=O)[C@H](OC(C)=O)CC[C@@]2(C)[C@@H]1CC(NC1CCCC1)C1=CCOC1=O (some centres not stated) | 55.62%

System: not listed separately
Experiment: Cytotoxicity against human OVCAR4 cells assessed as growth inhibition at 10 uM after 48 hrs by SRB assay
Type: functional
Conditions: OVCAR-4, 48 h, read-out: GI

Compound | inhibition of growth at 10 µM
C=C1CC[C@@H]2[C@](C)(COC(C)=O)[C@H](OC(C)=O)CC[C@@]2(C)[C@@H]1CC(NC1CCCC1)C1=CCOC1=O (some centres not stated) | 41.6%

System: NCI-H322M
Experiment: Cytotoxicity against human NCI-H322M cells assessed as growth level at 10 uM after 48 hrs by SRB assay
Type: functional
Conditions: not given

Compound | Activity
C=C1CC[C@@H]2[C@](C)(COC(C)=O)[C@H](OC(C)=O)CC[C@@]2(C)[C@@H]1CC(NC1CCCC1)C1=CCOC1=O (some centres not stated) | 101.16%

System: not listed separately
Experiment: Cytotoxicity against human TK10 cells assessed as growth inhibition at 10 uM after 48 hrs by SRB assay
Type: functional
Conditions: TK-10, 48 h, read-out: GI

Compound | inhibition of growth at 10 µM
C=C1CC[C@@H]2[C@](C)(COC(C)=O)[C@H](OC(C)=O)CC[C@@]2(C)[C@@H]1CC(NC1CCCC1)C1=CCOC1=O (some centres not stated) | 12.9%

System: A549
Experiment: Cytotoxicity against human A549 cells assessed as growth inhibition at 10 uM after 48 hrs by SRB assay
Type: functional
Conditions: A549, 48 h, read-out: GI

Compound | inhibition of growth at 10 µM
C=C1CC[C@@H]2[C@](C)(COC(C)=O)[C@H](OC(C)=O)CC[C@@]2(C)[C@@H]1CC(NC1CCCC1)C1=CCOC1=O (some centres not stated) | 26.4%

System: not listed separately
Experiment: Cytotoxicity against human RPMI8226 cells assessed as growth inhibition at 10 uM after 48 hrs by SRB assay
Type: functional
Conditions: RPMI-8226, 48 h, read-out: GI

Compound | inhibition of growth at 10 µM
C=C1CC[C@@H]2[C@](C)(COC(C)=O)[C@H](OC(C)=O)CC[C@@]2(C)[C@@H]1CC(NC1CCCC1)C1=CCOC1=O (some centres not stated) | 62.5%

System: NCI-H322M
Experiment: Cytotoxicity against human NCI-H322M cells assessed as growth inhibition at 10 uM after 48 hrs by SRB assay
Type: functional
Conditions: not given

Compound | growth inhibition (GI)
C=C1CC[C@@H]2[C@](C)(COC(C)=O)[C@H](OC(C)=O)CC[C@@]2(C)[C@@H]1CC(NC1CCCC1)C1=CCOC1=O (some centres not stated) | inactive
